Assay results from patent US20250163038A1, “CBL-B MODULATORS AND USES THEREOF” (Nimbus Clio, Inc., priority 2021, published 2025).

Tests used:
[1] = target: Recombinant human Cbl-b (aa 36-427) (Homo sapiens, UniProt Q13191); assay: Cbl-b Biochemical Assay (TR-FRET); conditions: read-out: TR-FRET hCbl-b IC50
[2] = tested on: Jurkat (clone E6-1) cells with NFAT luciferase reporter; assay: Jurkat reporter assay (NFAT Luciferase); type: cell-based; conditions: Homo sapiens; Jurkat NFAT luciferase reporter cells, anti-CD3 stimulation, 6 hr; read-out: Jurkat NFAT EC50
[3] = target: T1, Recombinant human c-Cbl (aa 47-435) (Homo sapiens, UniProt P22681); assay: c-Cbl Biochemical Assay (TR-FRET); conditions: hc-Cbl Biochemical Assay (TR-FRET); read-out: TR-FRET hcCbl IC50
T1 sequence (P22681 47-435): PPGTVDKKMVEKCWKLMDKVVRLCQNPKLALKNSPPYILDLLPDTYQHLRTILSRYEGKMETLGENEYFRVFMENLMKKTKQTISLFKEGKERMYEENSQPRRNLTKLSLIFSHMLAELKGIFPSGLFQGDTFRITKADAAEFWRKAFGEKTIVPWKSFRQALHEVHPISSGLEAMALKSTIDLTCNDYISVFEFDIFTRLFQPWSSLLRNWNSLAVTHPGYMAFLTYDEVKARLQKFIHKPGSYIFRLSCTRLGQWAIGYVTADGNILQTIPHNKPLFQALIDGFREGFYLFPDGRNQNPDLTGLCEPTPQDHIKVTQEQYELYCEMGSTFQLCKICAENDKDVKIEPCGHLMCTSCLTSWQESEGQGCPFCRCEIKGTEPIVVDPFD

Sequence of Recombinant human Cbl-b (aa 36-427) (Q13191 36-427): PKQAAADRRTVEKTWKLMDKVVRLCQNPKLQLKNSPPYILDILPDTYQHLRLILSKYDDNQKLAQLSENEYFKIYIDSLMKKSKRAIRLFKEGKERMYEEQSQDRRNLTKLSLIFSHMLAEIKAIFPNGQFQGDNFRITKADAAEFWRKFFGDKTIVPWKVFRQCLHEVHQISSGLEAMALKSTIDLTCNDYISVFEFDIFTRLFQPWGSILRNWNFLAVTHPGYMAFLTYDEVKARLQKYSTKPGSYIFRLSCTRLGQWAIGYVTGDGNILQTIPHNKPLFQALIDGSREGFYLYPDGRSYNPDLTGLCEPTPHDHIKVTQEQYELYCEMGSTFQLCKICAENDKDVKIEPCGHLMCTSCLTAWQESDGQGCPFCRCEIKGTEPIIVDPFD

Cn1cnnc1-c1cc(F)ccc1-c1cc(-c2nc3cc(CN[C@@H]4CCC[C@@H]4O)ccc3o2)cc(C2CC2)c1 [AEQ-2, (1S,2R)-2-[({2-[5-Cyclopropyl-4′-fluoro-2′-(4-methyl-1,2,4-triazol-3-yl)-[1,1′-biphenyl]-3-yl]-1,3-benzoxazol-5-yl}methyl)amino]cyclopentan-1-ol] gave an IC50 [1] of less than 200 nM, an EC50 [2] of less than 200 nM and an IC50 [3] of less than 200 nM.
For Cn1cnnc1-c1cc(F)ccc1-c1cc(-c2nc3cc(C(C)(C)O)c(F)c(F)c3o2)nc(C2CC2)c1 [AHL-7, 2-(2-{6-cyclopropyl-4-[4-fluoro-2-(4-methyl-1,2,4-triazol-3-yl)phenyl]pyridin-2-yl}-6,7-difluoro-1,3-benzoxazol-5-yl)propan-2-ol], the IC50 [1] was 200 to 1000 nM, the EC50 [2] was 1000 to 10000 nM and the IC50 [3] was 1000 to 10000 nM.
In the case of COCCNCc1cc(F)c2oc(-c3cccc(-c4ccc(F)cc4-c4nncn4C)c3)nc2c1 [IS-1, N-((7-Fluoro-2-(4′-fluoro-2′-(4-methyl-4H-1,2,4-triazol-3-yl)-[1,1′-biphenyl]-3-yl)benzo[d]oxazol-5-yl)methyl)-2-methoxyethan-1-amine], the IC50 [1] is reported as less than 200 nM, the EC50 [2] is reported as less than 200 nM and the IC50 [3] is reported as less than 200 nM.
For COCC(C)(C)NCc1cc(C(F)(F)F)c2oc(-c3cccc(-c4ccc(F)cc4-c4nncn4C)c3)nc2c1 [EO-2, N-((2-(4′-Fluoro-2′-(4-methyl-4H-1,2,4-triazol-3-yl)-[1,1′-biphenyl]-3-yl)-7-(trifluoromethyl)benzo[d]oxazol-5-yl)methyl)-1-methoxy-2-methylpropan-2-amine], the IC50 [1] was less than 200 nM, the EC50 [2] was 1000 to 10000 nM and the IC50 [3] was 200 to 1000 nM.
Cc1c(F)c(CO)cc2nc(-c3cc(-c4ccc(F)cc4-c4nncn4C)cc(C4CC4)n3)oc12 [AGP-7, (2-{6-Cyclopropyl-4-[4-fluoro-2-(4-methyl-1,2,4-triazol-3-yl)phenyl]pyridin-2-yl}-6-fluoro-7-methyl-1,3-benzoxazol-5-yl)methanol] was tested, and the IC50 [1] was 200 to 1000 nM, the EC50 [2] was 1000 to 10000 nM and the IC50 [3] was 1000 to 10000 nM.
Cn1cnnc1-c1cc(F)ccc1-c1cccc(-c2nc3cc(CNCC4(O)COC4)cc(C(F)(F)F)c3[nH]2)c1 [BQ-1, 3-((((2-(4′-Fluoro-2′-(4-methyl-4H-1,2,4-triazol-3-yl)-[1,1′-biphenyl]-3-yl)-7-(trifluoromethyl)-1H-benzo[d]imidazol-5-yl)methyl)amino)methyl)oxetan-3-ol] showed an IC50 [1] of less than 200 nM, an EC50 [2] of 200 to 1000 nM and an IC50 [3] of 1000 to 10000 nM.
Compound Cn1cnnc1-c1cc(F)ccc1-c1cccc(-c2nc3cc(CN4C[C@@H]5C[C@H]4CO5)cc(C(F)(F)F)c3o2)c1 [IN-2, 5-(((1S,4S)-2-Oxa-5-azabicyclo[2.2.1]heptan-5-yl)methyl)-2-(4′-fluoro-2′-(4-methyl-4H-1,2,4-triazol-3-yl)-[1,1′-biphenyl]-3-yl)-7-(trifluoromethyl)benzo[d]oxazole] has an IC50 [1] of 1000 to 10000 nM, an EC50 [2] of 1000 to 10000 nM and an IC50 [3] of 1000 to 10000 nM.
CC(c1cc(C(F)(F)F)c2[nH]c(-c3cccc(C4(Cc5nncn5C)COC4)c3)nc2c1)N1CCC2(CC2)C1 (stereo not drawn) [ACK-3, 5-(1-(5-Azaspiro[2.4]heptan-5-yl)ethyl)-2-(3-(3-((4-methyl-4H-1,2,4-triazol-3-yl)methyl)oxetan-3-yl)phenyl)-7-(trifluoromethyl)-1H-benzo[d]imidazole] was tested, and the IC50 [1] was 200 to 1000 nM, the EC50 [2] was 1000 to 10000 nM and the IC50 [3] was 10000 to 50000 nM.
COc1cc(CN[C@H]2C[C@H](O)C2)cc2nc(-c3cccc(-c4ccc(F)cc4-c4nncn4C)c3)oc12 [GY-1, (1R,3R)-3-(((2-(4′-Fluoro-2′-(4-methyl-4H-1,2,4-triazol-3-yl)-[1,1′-biphenyl]-3-yl)-7-methoxybenzo[d]oxazol-5-yl)methyl)amino)cyclobutan-1-ol] gave an IC50 [1] of 200 to 1000 nM, an EC50 [2] of 10000 to 50000 nM and an IC50 [3] of 1000 to 10000 nM.
With COCCNCc1cc(C(F)(F)F)c2oc(-c3cc(-c4ccc(F)cc4-c4nncn4C)cc(C4CC4)c3)nc2c1 [JT-1, N-((2-(5-Cyclopropyl-4′-fluoro-2′-(4-methyl-4H-1,2,4-triazol-3-yl)-[1,1′-biphenyl]-3-yl)-7-(trifluoromethyl)benzo[d]oxazol-5-yl)methyl)-2-methoxyethan-1-amine] the IC50 [1] was less than 200 nM, the EC50 [2] was less than 200 nM and the IC50 [3] was less than 200 nM.
For CN(Cc1cc(C(F)(F)F)c2oc(-c3cccc(-c4ccc(F)cc4-c4nncn4C)c3)nc2c1)[C@@H]1CCC[C@@H]1O [FW-3, (1S,2R)-2-(((2-(4′-Fluoro-2′-(4-methyl-4H-1,2,4-triazol-3-yl)-[1,1′-biphenyl]-3-yl)-7-(trifluoromethyl)benzo[d]oxazol-5-yl)methyl)(methyl)amino)cyclopentan-1-ol], the IC50 [1] was less than 200 nM, the EC50 [2] was less than 200 nM and the IC50 [3] was less than 200 nM.
With CC[C@H](O)CNCc1cc(C(F)(F)F)c2oc(-c3cccc(-c4ccc(F)cc4-c4nncn4C)c3)nc2c1 [DG-2, (S)-1-(((2-(4′-Fluoro-2′-(4-methyl-4H-1,2,4-triazol-3-yl)-[1,1′-biphenyl]-3-yl)-7-(trifluoromethyl)benzo[d]oxazol-5-yl)methyl)amino)butan-2-ol] the IC50 [1] was less than 200 nM, the EC50 [2] was less than 200 nM and the IC50 [3] was less than 200 nM.
With Cn1cnnc1-c1cc(Cl)ccc1-c1cccc(-c2nc3cc(CO)ccc3o2)c1 [ADK-1, {2-[4′-Chloro-2′-(4-methyl-1,2,4-triazol-3-yl)-[1,1′-biphenyl]-3-yl]-1,3-benzoxazol-5-yl}methanol] the IC50 [1] was 1000 to 10000 nM, the EC50 [2] was 10000 to 50000 nM and the IC50 [3] was 1000 to 10000 nM.
Cn1cnnc1-c1cc(F)ccc1-c1cccc(-c2nc3cc(CNCC4CC4)cc(C(F)(F)F)c3o2)c1 [FB-2, 1-Cyclopropyl-N-((2-(4′-fluoro-2′-(4-methyl-4H-1,2,4-triazol-3-yl)-[1,1′-biphenyl]-3-yl)-7-(trifluoromethyl)benzo[d]oxazol-5-yl)methyl)methanamine] showed an IC50 [1] of less than 200 nM, an EC50 [2] of less than 200 nM and an IC50 [3] of less than 200 nM.
For CO[C@H]1CCN(Cc2cc(C(F)(F)F)c3oc(-c4cccc(-c5ccc(F)cc5-c5nncn5C)c4)nc3c2)C1 [AB-2, (S)-2-(4′-Fluoro-2′-(4-methyl-4H-1,2,4-triazol-3-yl)-[1,1′-biphenyl]-3-yl)-5-((3-methoxypyrrolidin-1-yl)methyl)-7-(trifluoromethyl)benzo[d]oxazole], the IC50 [1] was less than 200 nM, the EC50 [2] was 1000 to 10000 nM and the IC50 [3] was 1000 to 10000 nM.
Cn1cnnc1CC1(c2cccc(-c3nc4cc(CN5CCC6(CC6)C5)cc(C(F)(F)F)c4[nH]3)c2)COC1 [ABK-1, 5-((5-Azaspiro[2.4]heptan-5-yl)methyl)-2-(3-(3-((4-methyl-4H-1,2,4-triazol-3-yl)methyl)oxetan-3-yl)phenyl)-7-(trifluoromethyl)-1H-benzo[d]imidazole] gave an IC50 [1] of 200 to 1000 nM, an EC50 [2] of 1000 to 10000 nM and an IC50 [3] of 1000 to 10000 nM.
CN(C)C(=O)CNCc1cc(C(F)(F)F)c2oc(-c3cccc(-c4ccc(F)cc4-c4nncn4C)c3)nc2c1 [EI-4, 2-(((2-(4′-Fluoro-2′-(4-methyl-4H-1,2,4-triazol-3-yl)-[1,1′-biphenyl]-3-yl)-7-(trifluoromethyl)benzo[d]oxazol-5-yl)methyl)amino)-N,N-dimethylacetamide] showed an IC50 [1] of less than 200 nM, an EC50 [2] of 200 to 1000 nM and an IC50 [3] of 200 to 1000 nM.
Work on COCCNCc1cc(F)c2oc(-c3cc(-c4ccc(F)cc4-c4nncn4C)cc(C4CC4)n3)nc2c1 [AHB-1, [(2-{6-cyclopropyl-4-[4-fluoro-2-(4-methyl-1,2,4-triazol-3-yl)phenyl]pyridin-2-yl}-7-fluoro-1,3-benzoxazol-5-yl)methyl](2-methoxyethyl)amine] yielded an IC50 [1] of less than 200 nM, an EC50 [2] of less than 200 nM and an IC50 [3] of less than 200 nM.
In the case of COCCNC(COC)c1cc(C)c2oc(-c3cccc(-c4ccc(F)cc4-c4nncn4C)c3)nc2c1 (stereo not drawn) [JK-7, 1-(2-(4′-Fluoro-2′-(4-methyl-4H-1,2,4-triazol-3-yl)-[1,1′-biphenyl]-3-yl)-7-methylbenzo[d]oxazol-5-yl)-2-methoxy-N-(2-methoxyethyl)ethan-1-amine], the IC50 [1] is reported as less than 200 nM, the EC50 [2] is reported as 1000 to 10000 nM and the IC50 [3] is reported as 200 to 1000 nM.
Cn1cnnc1-c1ccccc1-c1cccc(-c2nc3cc(CN[C@@H]4CCC[C@@H]4O)cc(C(F)(F)F)c3o2)c1 [Example R-3, (1S,2R)-2-(((2-(2′-(4-Methyl-4H-1,2,4-triazol-3-yl)-[1,1′-biphenyl]-3-yl)-7-(trifluoromethyl)benzo[d]oxazol-5-yl)methyl)amino)cyclopentan-1-ol] gave an IC50 [1] of less than 200 nM, an EC50 [2] of 200 to 1000 nM and an IC50 [3] of 1000 to 10000 nM.
In the case of Cc1cc(CN(C)CC2(O)CCC2)cc2nc(-c3cc(-c4ccc(F)cc4-c4nncn4C)cc(C4CC4)n3)oc12 [AFH-2, 1-({[(2-{6-Cyclopropyl-4-[4-fluoro-2-(4-methyl-1,2,4-triazol-3-yl)phenyl]pyridin-2-yl}-7-methyl-1,3-benzoxazol-5-yl)methyl](methyl)amino}methyl)cyclobutan-1-ol], the IC50 [1] is reported as less than 200 nM, the EC50 [2] is reported as 200 to 1000 nM and the IC50 [3] is reported as 200 to 1000 nM.
Compound Cn1cnnc1-c1cc(F)ccc1-c1cccc(-c2nc3cc(C(NCC4CCC4)C(F)(F)F)cc(F)c3o2)c1 (racemic) [IL-6, rac-N-(Cyclobutylmethyl)-2,2,2-trifluoro-1-(7-fluoro-2-(4′-fluoro-2′-(4-methyl-4H-1,2,4-triazol-3-yl)-[1,1′-biphenyl]-3-yl)benzo[d]oxazol-5-yl)ethan-1-amine] has an IC50 [1] of 1000 to 10000 nM, an EC50 [2] of 200 to 1000 nM and an IC50 [3] of 1000 to 10000 nM.
